Laboratory results published in patent US10328029B2, “Pharmaceutical composition” (Cycle Pharmaceuticals, priority 2014, dated 2019).
Entries after “also recorded” stand apart in the source; their conditions may differ.

Tests used:
Type in all cases: physicochemical
[1] = Excipient compatibility: nitisinone mixed with fillers/lubricants, stored at 40° C./75% RH, cyclised impurity by HPLC
Experimental: In order to identify suitable excipients to develop a temperature stable formulation, 4 standard fillers and 5 lubricants were mixed with nitisinone and stored under accelerated conditions for 1 week and 3 weeks. 10 preparations for each excipient were prepared by weighing approximately 10 mg of nitisinone and 500 mg of the excipient into a glass vial and mixing together by gentle swirling. To 5 lots of preparations, 50 μl of water was added to wet the sample. For a control, 10 preparations of the drug substance were prepared by weighing approximately 10 mg nitisinone into a suitable glass vial and to 5 lots of preparations, 50 μl of water was added to wet the sample.
HPLC analysis was used to quantify the relative amount of the cyclised impurity (RRT 0.7) for each formulation at each time point (Tables 7 and 8).
(§1) In the foregoing examples, the HPLC conditions were as follows: […]

[2] = Process stability of nitisinone in acetone, in water and on drying (HPLC purity)
Experimental: It is a requirement of GMP manufacturing that the final recrystallisation includes a filtration through a polishing filter to remove particulates, and so the GMP process would involve filtration of the hot acetone solution. This means that it is likely that the solution of Nitisinone in acetone at 45° C. could be held at elevated temperature for a prolonged period of time. The stability of stage 1 at 45° C. was tested over a 6 hour period to confirm that the Nitisinone would not degrade under these conditions (Table 4). […] Therefore, acetone could be used in the hot filtration step of the GMP process.
On scale-up, drying from water can often take much longer than on lab scale and could potentially result in degradation of the product, especially with a product that could potentially be prone to hydrolysis. Following filtration of Nitisinone from the final recrystallisation, the filter-cake was washed with water to remove the residual mother liquors. Due to its high solubility in acetone and other organic solvents, a solvent wash was not appropriate as high yield losses would likely be incurred. A water wash also helped remove residual inorganics. Drying studies were therefore carried out to determine the stability of the recrystallised material and try to ensure that there would be no unexpected degradation during the drying phase of the scale-up manufacture (Table 5).
Two separate batches were heated over a 60 hour period with purity and KF values taken (entries 1-10). […] A sample of Nitisinone was suspended in water and heated at 40° C. with no vacuum for 60 hours (entries 11-13), to simulate poor drying. […] A second sample was wetted each morning and dried under vacuum overnight to study the effect of repeatedly wetting and drying the sample (entries 14-19).

[3] = API stability study of nitisinone under long-term and accelerated storage (HPLC)
Experimental: Data provided by the stability testing programme was conducted with the substance under investigation stored in the actual packaging used for storage and distribution. This was to determine if the substance remained compliant with the ICH specification criteria when tested over the period of its shelf life plus one year.
A sample of approximately 150 g of substance was used for the testing programme, with individual samples being approximately 7 g in size. The test was designed to simulate the product package, i.e. the sample was packed in a polythene bag, sealed and then placed inside another polythene bag liner. The sample was then held in a fibreboard cask with a fibreboard lid.
The sample was stored in an incubator maintained at 25° C.±2° C./60%±5% relative humidity (RH), and 40° C.±2° C./75%±5% RH.
After testing of an initial sample, a sample was tested at certain time intervals (Table 6), i.e. monthly (0 m, 1 m, 2 m, etc.).
There was no decrease in purity and the cyclised impurity remained below the identification threshold (0.10%) throughout the stability testing (measured by HPLC).
as §1

Question: For O=C1CCCC(=O)C1C(=O)c1ccc(C(F)(F)F)cc1[N+](=O)[O-] [Nitisinone, 2-[2-nitro-4-(trifluoromethyl)benzoyl] cyclohexane-1,3-dione], which “Cyclised Impurity - RRT 0.7” value ([1]; 1 week, Dry) is on record?
Answer: Its value is 0.02 norm %.

Question: And the “Cyclised Impurity - RRT 0.7” value ([1]; 1 week, Wet (50 μl water))?
Answer: The value was 0.07 norm %.

Question: And the “Cyclised Impurity - RRT 0.7” value ([1]; 3 weeks, Dry)?
Answer: The value was 0.13 norm %.

Question: And the “Cyclised Impurity - RRT 0.7” value ([1]; 3 weeks, Wet (50 μl water))?
Answer: Its value is 0.20 norm %.

Question: What about the “Cyclised Impurity - RRT 0.7” value ([1]; Initial, about 10 mg nitisinone + 500 mg excipient) of the same molecule?
Answer: Its value is 0.01 norm %.

Question: And the “stability of stage 1 nitisinone in acetone (purity, in words)” value ([2]; acetone, 45° C., over a 6 hour period)?
Answer: Its value is “No loss of purity was observed”.

Question: What about the “stability of Nitisinone in water (purity, in words)” value ([2]; suspended in water, heated at 40° C., no vacuum, 60 hours) of the same molecule?
Answer: The value was “No loss of purity was observed”.

Question: And the “stability of recrystallised Nitisinone to extended drying (purity, in words)” value ([2]; two batches heated over a 60 hour period)?
Answer: Its value is “little to no loss in purity”.

Question: And the “API stability with respect to cyclised impurity (in words)” value ([3]; 25° C./60% RH and 40° C./75% RH, listed as API)?
Answer: Its value is “no formation of the aforementioned cyclised impurity was observed; also recorded: no deviation from specification”.

Question: What about the “Stability of API over time” value ([3]; 25° C./60% RH, 0 m) of the same molecule?
Answer: Its value is 99.90% w/w.

Question: What about the “Stability of API over time” value ([3]; 25° C./60% RH, 1 m) of the same molecule?
Answer: The value was 99.87% w/w.

Question: What about the “Stability of API over time” value ([3]; 25° C./60% RH, 2 m) of the same molecule?
Answer: The value was 99.88% w/w.

Question: And the “Stability of API over time” value ([3]; 25° C./60% RH, 3 m)?
Answer: The value was 99.91% w/w.

Question: And the “Stability of API over time” value ([3]; 25° C./60% RH, 6 m)?
Answer: The value was 99.91% w/w.

Question: And the “Stability of API over time” value ([3]; 40° C./75% RH, 0 m)?
Answer: The value was 99.90% w/w.

Question: What about the “Stability of API over time” value ([3]; 40° C./75% RH, 1 m) of the same molecule?
Answer: The value was 99.89% w/w.

Question: What about the “Stability of API over time” value ([3]; 40° C./75% RH, 2 m) of the same molecule?
Answer: The value was 99.88% w/w.

Question: And the “Stability of API over time” value ([3]; 40° C./75% RH, 3 m)?
Answer: Its value is 99.92% w/w.

Question: What about the “Stability of API over time” value ([3]; 40° C./75% RH, 6 m) of the same molecule?
Answer: Its value is 99.96% w/w.
